These results are taken from article PMC4724249 (European journal of medicinal chemistry, 2015).

In test [1] the test system is a variety of fungi and Gram-positive bacteria. Conditions: cited from earlier work.
Test [2] has as its system MRSA CBD-635 and P. aeruginosa USF-1423. The test is described as follows: MIC of reference antibiotics at the start of serial passage. It is filed as cell-based. Conditions: organism not stated in the legend of Figure 4.

fusaricidin A: in test [1], the MICs was 0.78 to 3.12 µg/mL.
In the case of `CN[C@H](CC(C)C)C(=O)N[C@H]1C(=O)N[C@@H](CC(N)=O)C(=O)N[C@H]2C(=O)N[C@H]3C(=O)N[C@H](C(=O)N[C@H](C(=O)O)c4cc(O)cc(O)c4-c4cc3ccc4O)[C@H](O)c3ccc(c(Cl)c3)Oc3cc2cc(c3O[C@@H]2O[C@H](CO)[C@@H](O)[C@H](O)[C@H]2O[C@H]2C[C@](C)(N)[C@H](O)[C@H](C)O2)Oc2ccc(cc2Cl)[C@H]1O` [Vancomycin], the “MIC of reference antibiotic” value in test [2] was 7 µM.
Consider `O=C(O)c1cn(C2CC2)c2cc(N3CCNCC3)c(F)cc2c1=O` [ciprofloxacin], for which the “MIC of reference antibiotic” value in test [2] is 30 µM.
